# Data: paper PMC10893631, “Receptor-based pharmacophore modeling, molecular docking, synthesis and biological evaluation of novel VEGFR-2, FGFR-1, and BRAF multi-kinase inhibitors” (BMC Chemistry, 2024)
# Like-named read-outs stand apart in the source and are kept apart here.
# What was measured:
# Type in all cases: cell-based, human
# [1] = test system: NCI panel of 60 tumor cell lines; experiment: NCI SRB growth inhibition, whole panel mean (single dose 10 µM / five-dose); settings: Homo sapiens
# Outline: (§1)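 Cytotoxicity in the NCI panel of sixty human tumour lines was measured by sulforhodamine B protein staining. Each agent was tested in DMSO-derived dilutions at five concentrations, and TGI was read where treated absorbance equalled time-zero absorbance.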
# IGROV1 = experiment: NCI SRB growth inhibition (single dose 10 µM / five-dose); settings: Homo sapiens, IGROV-1; for inhibition at 10 µM: IGROV1 (Ovarian cancer), read-out: GI%
# Outline: as §1
# COLO 205 = experiment: as above; settings: Homo sapiens; for inhibition at 10 µM: COLO 205 (Colon cancer), read-out: GI%
# Outline: as §1
# HCT-15 = experiment: as above; settings: Homo sapiens; for inhibition at 10 µM: HCT-15 (Colon cancer), read-out: GI%
# Outline: as §1
# SF-268 = experiment: as above; settings: Homo sapiens; for inhibition at 10 µM: SF-268 (CNS cancer), read-out: GI%
# Outline: as §1
# UACC-62 = experiment: as above; settings: Homo sapiens; for inhibition at 10 µM: UACC-62 (Melanoma), read-out: GI%
# Outline: as §1
# T-47D = experiment: as above; settings: Homo sapiens, T47D; for inhibition at 10 µM: T-47D (Breast cancer), read-out: GI%
# Outline: as §1
# OVCAR-3 = experiment: as above; settings: Homo sapiens; for inhibition at 10 µM: OVCAR-3 (Ovarian cancer), read-out: GI%
# Outline: as §1
# NCI-H23 = experiment: as above; settings: Homo sapiens; for inhibition at 10 µM: NCI-H23 (Non-small cell lung cancer), read-out: GI%
# Outline: as §1
# UO-31 = experiment: as above; settings: Homo sapiens; for inhibition at 10 µM: UO-31 (Renal cancer), read-out: GI%
# Outline: as §1
# HOP-62 = experiment: as above; settings: Homo sapiens; for inhibition at 10 µM: HOP-62 (Non-small cell lung cancer), read-out: GI%
# Outline: as §1
# MDA-MB-435 = experiment: as above; settings: Homo sapiens; for inhibition at 10 µM: MDA-MB-435 (Melanoma), read-out: GI%
# Outline: as §1
# SK-OV-3 = experiment: as above; settings: Homo sapiens; for inhibition at 10 µM: SK-OV-3 (Ovarian cancer), read-out: GI%
# Outline: as §1
# NCI-H322M = experiment: as above; settings: Homo sapiens; for inhibition at 10 µM: NCI-H322M (Non-small cell lung cancer), read-out: GI%
# Outline: as §1
# NCI-H522 = experiment: as above; settings: Homo sapiens; for inhibition at 10 µM: NCI-H522 (Non-small cell lung cancer), read-out: GI%
# Outline: as §1
# HL-60(TB) = experiment: as above; settings: Homo sapiens; for inhibition at 10 µM: HL-60(TB) (Leukemia), read-out: GI%
# Outline: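 SRB protein stain of fixed cells; compounds tested at one dose (10 µM) or five serial dilutions (10-fold or ½ log), diluted from DMSO stock. Cells plated 24 h before dosing, with a time-zero plate fixed in TCA. Percent growth derived from Tz, control and test absorbances; TGI taken where Ti = Tz.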
# OVCAR-8 = experiment: as above; settings: Homo sapiens; for inhibition at 10 µM: OVCAR-8 (Ovarian cancer), read-out: GI%
# Outline: as §1
# PC-3 = experiment: as above; settings: Homo sapiens; PC-3 (Prostate cancer), 10 µM; read-out: GI%
# Outline: as §1
# NCI-H460 = experiment: as above; settings: Homo sapiens; for inhibition at 10 µM: NCI-H460 (Non-small cell lung cancer), read-out: GI%
# Outline: as §1
# SN12C = experiment: as above; settings: Homo sapiens
# Outline: as §1
# KM12 = experiment: as above; settings: Homo sapiens; for inhibition at 10 µM: KM12 (Colon cancer), read-out: GI%
# Outline: as §1
# U251 = experiment: as above; settings: Homo sapiens, U-251; for inhibition at 10 µM: U251 (CNS cancer), read-out: GI%
# Outline: as §1
# OVCAR-4 = experiment: as above; settings: Homo sapiens; for inhibition at 10 µM: OVCAR-4 (Ovarian cancer), read-out: GI%
# Outline: as §1
# [2] = mean over NCI 60 cell lines, > 100% = lethal effect, read-out: mean growth inhibition % (GI%)
# [3] = mean over NCI panel of 60 tumor cell lines, read-out: Mean growth inhibition %
structure (smiles),measurement,setting,value
"COc1ccc(-c2nc3cc(C(=O)NN=Cc4cccc(OC)c4O)ccc3[nH]2)cc1 [8k, N'-(2-Hydroxy-3-methoxybenzylidene)-2-(4-methoxyphenyl)-1H-benzo[d]imidazole-5-carbohydrazide]",inhibition at 10 µM,[1]; [2],> 100%
same,GI50,"[1]; mean over NCI cancer cell lines, five-dose",7.7 µM
same,inhibition at 10 µM,[1]; [3],> 100%
same,inhibition at 10 µM,IGROV1,84.8%
same,GI50,"IGROV1; IGROV1, Ovarian cancer, five-dose",3.52 µM
same,inhibition at 10 µM,COLO 205,> 100%
same,GI50,"COLO 205; COLO 205, Colon cancer, five-dose",3.94 µM
same,inhibition at 10 µM,HCT-15,78.1%
same,GI50,"HCT-15; HCT-15, Colon cancer, five-dose",3.35 µM
same,inhibition at 10 µM,SF-268,> 100%
same,GI50,"SF-268; SF-268, CNS cancer, five-dose",2.16 µM
same,inhibition at 10 µM,UACC-62,98%
same,GI50,"UACC-62; UACC-62, Melanoma, five-dose",2.78 µM
same,inhibition at 10 µM,T-47D,95%
same,GI50,"T-47D; T-47D, Breast cancer, five-dose",3.48 µM
same,inhibition at 10 µM,OVCAR-3,> 100%
same,GI50,"OVCAR-3; OVCAR-3, Ovarian cancer, five-dose",1.25 µM
same,inhibition at 10 µM,NCI-H23,> 100%
same,GI50,"NCI-H23; NCI-H23, Non-small cell lung cancer, five-dose",2.14 µM
same,inhibition at 10 µM,UO-31,83.2%
same,GI50,"UO-31; UO-31, Renal cancer, five-dose",3.34 µM
same,inhibition at 10 µM,HOP-62,> 100%
same,GI50,"HOP-62; HOP-62, Non-small cell lung cancer, five-dose",3.11 µM
same,inhibition at 10 µM,MDA-MB-435,76%
same,GI50,"MDA-MB-435; MDA-MB-435, Melanoma, five-dose",6.2 µM
same,inhibition at 10 µM,SK-OV-3,> 100%
same,GI50,"SK-OV-3; SK-OV-3, Ovarian cancer, five-dose",4.31 µM
same,inhibition at 10 µM,NCI-H322M,95.9%
same,GI50,"NCI-H322M; NCI-H322M, Non-small cell lung cancer, five-dose",3.04 µM
same,inhibition at 10 µM,NCI-H522,> 100%
same,GI50,"NCI-H522; NCI-H522, Non-small cell lung cancer, five-dose",2.98 µM
same,inhibition at 10 µM,HL-60(TB),> 100%
same,GI50,"HL-60(TB); HL-60(TB), Leukemia, five-dose",7.66 µM
same,inhibition at 10 µM,OVCAR-8,> 100%
same,GI50,"OVCAR-8; OVCAR-8, Ovarian cancer, five-dose",2.71 µM
same,inhibition at 10 µM,PC-3,87.9%
same,inhibition at 10 µM,NCI-H460,> 100%
same,GI50,"NCI-H460; NCI-H460, Non-small cell lung cancer, five-dose",3.27 µM
same,GI50,"SN12C; SN12C, Renal cancer, five-dose",3.81 µM
same,inhibition at 10 µM,KM12,> 100%
same,GI50,"KM12; KM12, Colon cancer, five-dose",2.45 µM
same,inhibition at 10 µM,U251,97.3%
same,GI50,"U251; U251, CNS cancer, five-dose",2.17 µM
same,inhibition at 10 µM,OVCAR-4,86%
same,GI50,"OVCAR-4; OVCAR-4, Ovarian cancer, five-dose",3.26 µM
"COc1ccc(-c2nc3cc(C(=O)NN=Cc4ccc(OC)c(O)c4)ccc3[nH]2)cc1 [8l, N'-(3-Hydroxy-4-methoxybenzylidene)-2-(4-methoxyphenyl)-1H-benzo[d]imidazole-5-carbohydrazide]",inhibition at 10 µM,[1]; [2],34.4%
same,inhibition at 10 µM,[1]; [3],34.4%
same,inhibition at 10 µM,IGROV1,20.3%
same,inhibition at 10 µM,COLO 205,76.8%
same,inhibition at 10 µM,HCT-15,< 5%
same,inhibition at 10 µM,SF-268,40.4%
same,inhibition at 10 µM,UACC-62,47.6%
same,inhibition at 10 µM,T-47D,52.5%
same,inhibition at 10 µM,OVCAR-3,37.6%
same,inhibition at 10 µM,NCI-H23,24%
same,inhibition at 10 µM,UO-31,9.13%
same,inhibition at 10 µM,HOP-62,55.5%
same,inhibition at 10 µM,MDA-MB-435,26.5%
same,inhibition at 10 µM,SK-OV-3,< 5%
same,inhibition at 10 µM,NCI-H322M,24%
same,inhibition at 10 µM,NCI-H522,38.2%
same,inhibition at 10 µM,HL-60(TB),52.2%
same,inhibition at 10 µM,OVCAR-8,28.1%
same,inhibition at 10 µM,PC-3,51.2%
same,inhibition at 10 µM,NCI-H460,15%
same,inhibition at 10 µM,"SN12C; SN12C (Renal cancer), 10 µM, read-out: GI%",27%
same,inhibition at 10 µM,KM12,34.5%
same,inhibition at 10 µM,U251,44.8%
same,inhibition at 10 µM,OVCAR-4,9.88%
